How the values were obtained:
Assay in all cases: relative viability (nuclei count vs DMSO), 5 days (fraction); higher = more cells survive
RAF265 = compound: Cn1c(Nc2ccc(C(F)(F)F)cc2)nc2cc(Oc3ccnc(-c4ncc(C(F)(F)F)[nH]4)c3)ccc21 [RAF265]
Method in brief: (§1)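 Lung cancer cell lines were seeded into 1536-well plates, kept overnight at 37 °C and pinned with five library-drug doses (not always all listed) spaced by √10. After 5 days, nuclei were Hoechst-stained, imaged at 4× and counted with MetaXpress. Viability is treated-well nuclei over vehicle-well nuclei, taken as a median across plates. Plates needed control CV below 25% and at least one doubling.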

Doramapimod = compound: Cc1ccc(-n2nc(C(C)(C)C)cc2NC(=O)Nc2ccc(OCCN3CCOCC3)c3ccccc23)cc1 [Doramapimod]
Method in brief: as §1

IPA-3 = compound: C1=CC=C2C(=C1)C=CC(=C2SSC3=C(C=CC4=CC=CC=C43)O)O [IPA-3]
Method in brief: as §1

RAF265 + Olaparib = compound: Cn1c(Nc2ccc(C(F)(F)F)cc2)nc2cc(Oc3ccnc(-c4ncc(C(F)(F)F)[nH]4)c3)ccc21 [RAF265] + O=C(c1cc(Cc2n[nH]c(=O)c3ccccc23)ccc1F)N1CCN(C(=O)C2CC2)CC1 [Olaparib] (partner 8 µM)
Method in brief: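 Relative viability was taken as the ratio of nuclei in treated wells to nuclei in vehicle wells. Lung cancer cell lines in 1536-well plates received compounds by pin tool one day after seeding, either one drug alone or a fixed anchor-drug dose plus five library-drug doses (not always all listed) in √10 steps. Nuclei were counted on 4× images after 5 days of treatment, and values are medians of duplicate plates.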

UMC-11
relative viability (RAF265; 0.01 µM): 0.975
relative viability (RAF265; 0.03162 µM): 0.95
relative viability (RAF265; 0.1 µM): 0.942
relative viability (RAF265; 0.3162 µM): 0.948
relative viability (RAF265; 1 µM): 0.872
relative viability (Doramapimod; 0.02 µM): 0.904
relative viability (Doramapimod; 0.06325 µM): 0.934
relative viability (Doramapimod; 0.2 µM): 0.956
relative viability (Doramapimod; 0.6325 µM): 0.782
relative viability (Doramapimod; 2 µM): 0.841
relative viability (IPA-3; 0.2 µM): 1.08
relative viability (IPA-3; 0.6325 µM): 0.932
relative viability (IPA-3; 2 µM): 0.967
relative viability (IPA-3; 6.325 µM): 0.916
relative viability (IPA-3; 20 µM): 1.09
relative viability (RAF265 + Olaparib; first compound 0.01 µM): 0.408
relative viability (RAF265 + Olaparib; first compound 0.03162 µM): 0.368
relative viability (RAF265 + Olaparib; first compound 0.1 µM): 0.966
relative viability (RAF265 + Olaparib; first compound 0.3162 µM): 0.31
relative viability (RAF265 + Olaparib; first compound 1 µM): 0.329

— the supplement of paper PMC10307832
